Experimental data: patent publication US11773129B2, “Methods of preventing or treating atherosclerosis with inhibitors of specific isoenzymes of human neuraminidase” (THE GOVERNORS OF THE UNIVERSITY OF ALBERTA, priority 2017, dated 2023)

Experiments:
Format in all cases: biochemical
NEU1, NEU2, NEU3, NEU4 = experiment: Isoenzyme specificity/selectivity from 4MU-NANA IC50 across the four human neuraminidases; details: isoenzyme(s) the compound is specific for; dual (bispecific) when ratio of IC50 is about 3 or less
NEU1 = molecular target: T1, NEU1 (Homo sapiens, UniProt Q99519); experiment: IC50 inhibition assay using 4MU-NANA as the substrate, NEU1; details: 4MU-NANA as the substrate; read-out: IC50 NEU1
T1 construct: made in house; host or cells: HEK293 (lentiviral transduction), crude lysate
Description: Two weeks after transduction cells were harvested and a crude lysate showing ˜200 nmol/h mg of sialidase activity used in experiments.
Assays were performed with duplicates for each point and IC50 was obtained by plotting the data with Graphpad™ Prism 5.0.

NEU4 = molecular target: T2, NEU4 (Homo sapiens, UniProt Q8WWR8); experiment: IC50 inhibition assay using 4MU-NANA as the substrate, NEU4; design: GST; made in house; host or cells: E. coli; details: 4MU-NANA as the substrate; read-out: IC50 NEU4
T2 sequence (Q8WWR8 1-484): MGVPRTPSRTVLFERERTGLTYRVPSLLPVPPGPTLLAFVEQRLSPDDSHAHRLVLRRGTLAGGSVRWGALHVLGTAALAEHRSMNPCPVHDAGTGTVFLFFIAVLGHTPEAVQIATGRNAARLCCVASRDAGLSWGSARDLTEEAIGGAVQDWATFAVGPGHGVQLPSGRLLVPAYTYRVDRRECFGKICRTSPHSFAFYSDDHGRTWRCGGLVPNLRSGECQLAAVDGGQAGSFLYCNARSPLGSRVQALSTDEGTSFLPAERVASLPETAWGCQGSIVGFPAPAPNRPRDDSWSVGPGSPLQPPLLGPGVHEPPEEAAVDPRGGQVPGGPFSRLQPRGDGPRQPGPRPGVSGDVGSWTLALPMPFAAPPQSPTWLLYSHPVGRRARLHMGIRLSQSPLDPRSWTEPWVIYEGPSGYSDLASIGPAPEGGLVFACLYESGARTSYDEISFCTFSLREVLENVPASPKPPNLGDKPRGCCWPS

NEU3 = molecular target: T3, NEU3 (Homo sapiens, UniProt Q9UQ49); experiment: IC50 inhibition assay using 4MU-NANA as the substrate, NEU3; design: MBP (N); made in house; host or cells: E. coli; details: 4MU-NANA as the substrate; read-out: IC50 NEU3
T3 sequence (Q9UQ49 1-428): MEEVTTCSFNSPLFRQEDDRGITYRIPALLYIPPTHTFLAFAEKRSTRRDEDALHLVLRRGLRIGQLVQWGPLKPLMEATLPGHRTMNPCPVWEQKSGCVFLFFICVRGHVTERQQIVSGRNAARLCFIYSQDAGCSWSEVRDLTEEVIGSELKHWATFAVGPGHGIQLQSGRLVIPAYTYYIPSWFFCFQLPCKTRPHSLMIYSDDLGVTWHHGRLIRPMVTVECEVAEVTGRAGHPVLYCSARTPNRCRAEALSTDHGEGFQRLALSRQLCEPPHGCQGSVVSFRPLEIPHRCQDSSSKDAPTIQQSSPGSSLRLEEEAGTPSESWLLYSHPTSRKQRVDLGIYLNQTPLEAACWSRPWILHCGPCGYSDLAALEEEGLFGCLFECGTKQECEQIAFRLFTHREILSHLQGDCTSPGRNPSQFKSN

Target (NEU1, NEU2, NEU3, NEU4)	IC50 (NEU1)	IC50 (NEU4)	IC50 (NEU3)	SMILES
NEU3/ NEU4	47 ± 6 µM	2.6 ± 0.3 µM	5.9 ± 0.4 µM	COc1ccc(-c2cn(C[C@@H](O)[C@@H](O)[C@@H]3OC(C(=O)O)=C[C@H](O)[C@H]3NC(C)=O)nn2)cc1 [7e, 5-Acetamido-(4-methoxyphenyl)-2,6-anhydro-3,5-dideoxy-b-glycero-D-galacto-non-2-enonic acid]
NEU1/ NEU2	32 ± 5 µM	> 500 µM	> 500 µM	CC(C)CC(=O)N[C@H]1[C@H]([C@H](O)[C@H](O)CO)OC(C(=O)O)=C[C@@H]1O [compound 35, 5-(3-methylbutanamido)-2,6-anhydro-3,5-dideoxy-D-glycero-D-galacto-non-2-enonic acid]
NEU1	1.7 ± 0.1 µM	370 ± 160 µM	150 ± 20 µM	CC(C)CCC(=O)N[C@H]1[C@H]([C@H](O)[C@H](O)CO)OC(C(=O)O)=C[C@@H]1O [compound 36, 5-(4-Methylpentanamido)-2,6-anhydro-3,5-dideoxy-D-glycero-D-galacto-non-2-enonic acid]
NEU1	11 ± 1 µM	> 500 µM	480 ± 100 µM	O=C(O)C1=C[C@H](O)[C@@H](NC(=O)c2ccccc2)[C@H]([C@H](O)[C@H](O)CO)O1 [compound 39, 5-Benzamido-2,6-anhydro-3,5-dideoxy-D-glycero-D-galacto-non-2-enonic acid]
NEU1	18 ± 1 µM	87 ± 18 µM	60 ± 7 µM	CCC(=O)N[C@H]1[C@H]([C@H](O)[C@H](O)CO)OC(C(=O)O)=C[C@@H]1O [compound 29, 5-Propionamido-2,6-anhydro-3,5-dideoxy-D-glycero-D-galacto-non-2-enonic acid]
NEU4	> 500 µM	66 ± 16 µM	> 500 µM	CC(=O)N[C@H]1[C@H]([C@H](O)[C@H](O)Cn2cc(-c3ccc(C(=O)O)cc3)nn2)OC(C(=O)O)=C[C@@H]1NC(=O)NCCC(=O)O [compound 18]
NEU1	1.2 ± 0.1 µM	> 500 µM	> 500 µM	CCCCCC(=O)N[C@H]1[C@H]([C@H](O)[C@H](O)CNC(=O)CCC)OC(C(=O)O)=C[C@@H]1O [compound 70, 5-Hexanamido-9-butanamido-2,6-anhydro-3,5-dideoxy-D-glycero-D-galacto-non-2-enonic acid]
NEU3/ NEU4	> 500 µM	0.97 ± 0.24 µM	1 ± 0.1 µM	CC(=O)N[C@H]1[C@H]([C@H](O)[C@H](O)Cn2cc(-c3ccc(Oc4ccccc4)cc3)nn2)OC(C(=O)O)=C[C@@H]1O [7j]
NEU1/ NEU3	29 ± 5 µM	210 ± 80 µM	31 ± 6 µM	CC(=O)N[C@H]1[C@H]([C@H](O)[C@H](O)CNC(=O)c2ccc(N)cc2)OC(C(=O)O)=C[C@@H]1O [compound 59, 5-Acetamido-9-(4-amino)benzamido-2,6-anhydro-3,5-dideoxy-b-glycero-D-galacto-non-2-enonic acid]
NEU1/ NEU2/ NEU3/ NEU4	110 ± 10 µM	36 ± 5 µM	46 ± 7 µM	CN(C)c1ccc(-c2cn(CC(=O)N[C@@H]3C(O)C=C(C(=O)O)OC3C(O)C(O)CO)nn2)cc1 (stereo partly drawn) [compound 47, 5-(2-(4-(4-(dimethylamino)phenyl-1H-1,2,3-triazol-1-yl)acetamido))-2,3,5-trideoxy-D-glycero-D-galacto-2-nonulopyranosonic acid]
NEU3/ NEU4	190 ± 40 µM	28 ± 3 µM	9.3 ± 0.8 µM	CC(=O)N[C@H]1[C@H]([C@H](O)[C@H](O)Cn2cc(-c3ccc(N(C)C)cc3)nn2)OC(C(=O)O)=C[C@@H]1O [7a]
NEU1	4.3 ± 0.8 µM	> 500 µM	> 500 µM	CCCCCC(=O)NC[C@@H](O)[C@@H](O)[C@@H]1OC(C(=O)O)=C[C@H](O)[C@H]1NC(=O)CCCCC [compound 64, 5-Hexanamido-9-hexanamido-2,6-anhydro-3,5-dideoxy-d-glycero-d-galacto-non-2-enonic acid]
